Measurements: the supplement of paper PMC10307832

Columns and labels:
Assay in all cases: relative viability (nuclei count vs DMSO), 5 days (fraction); higher = more cells survive
ChaGo-K-1 = system: ChaGo-K-1
Summary of the method: (§1)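 One day after seeding in 1536-well plates, lung cancer cell lines were dosed by pin tool. Dosing was either single-drug or a fixed anchor-drug dose plus five library-drug doses (not always all listed) in √10 steps. After 5 days, nuclei were stained in one fix-and-stain step and counted on 4× images, and relative viability is the nuclei count of treated wells over that of vehicle wells, given as the median of duplicate plates.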

NCI-H1299 = system: NCI-H1299
Summary of the method: as §1

A549 = system: A549
Summary of the method: as §1

EBC-1 = system: EBC-1
Summary of the method: as §1

IA-LM = system: IA-LM
Summary of the method: as §1

SK-MES-1 = system: SK-MES-1
Summary of the method: as §1

NCI-H1703 = system: NCI-H1703
Summary of the method: as §1

NCI-H1651 = system: NCI-H1651
Summary of the method: as §1

Calu-6 = system: Calu-6
Summary of the method: as §1

With `Oc1nc(-c2ccc(C(F)(F)F)cc2)nc2c1CSCC2` [XAV939] + C[C@@H](Oc1cc(-c2cnn(C3CCNCC3)c2)cnc1N)c1c(Cl)ccc(F)c1Cl [Crizotinib] (partner 1 µM) the relative viability (ChaGo-K-1; first compound 0.08 µM) was 1.28, the relative viability (ChaGo-K-1; first compound 0.253 µM) was 1.16 and the relative viability (ChaGo-K-1; first compound 0.8 µM) was 1.07. For the same molecule, the relative viability (ChaGo-K-1; first compound 2.53 µM) was 0.883, the relative viability (NCI-H1299; first compound 0.08 µM) was 0.94 and the relative viability (NCI-H1299; first compound 0.253 µM) was 0.978. The relative viability (NCI-H1299; first compound 0.8 µM) was 0.956, the relative viability (NCI-H1299; first compound 2.53 µM) was 0.958 and the relative viability (A549; first compound 0.08 µM) was 1.07. It also gave a relative viability (A549; first compound 0.253 µM) of 0.713, a relative viability (A549; first compound 0.8 µM) of 0.693 and a relative viability (A549; first compound 2.53 µM) of 0.633. It also gave a relative viability (EBC-1; first compound 0.08 µM) of 0.213, a relative viability (EBC-1; first compound 0.253 µM) of 0.223 and a relative viability (EBC-1; first compound 0.8 µM) of 0.165. For the same molecule, the relative viability (EBC-1; first compound 2.53 µM) was 0.182, the relative viability (IA-LM; first compound 0.08 µM) was 0.792 and the relative viability (IA-LM; first compound 0.253 µM) was 0.876. For the same molecule, the relative viability (IA-LM; first compound 0.8 µM) was 0.398, the relative viability (IA-LM; first compound 2.53 µM) was 0.444 and the relative viability (SK-MES-1; first compound 0.08 µM) was 1.02. It also gave a relative viability (SK-MES-1; first compound 0.253 µM) of 0.934, a relative viability (SK-MES-1; first compound 0.8 µM) of 0.882 and a relative viability (SK-MES-1; first compound 2.53 µM) of 0.842. The relative viability (NCI-H1703; first compound 0.08 µM) was 0.787, the relative viability (NCI-H1703; first compound 0.253 µM) was 0.621 and the relative viability (NCI-H1703; first compound 0.8 µM) was 0.77. The relative viability (NCI-H1703; first compound 2.53 µM) was 0.583, the relative viability (NCI-H1651; first compound 0.08 µM) was 0.988 and the relative viability (NCI-H1651; first compound 0.253 µM) was 0.798. It also gave a relative viability (NCI-H1651; first compound 0.8 µM) of 0.857, a relative viability (NCI-H1651; first compound 2.53 µM) of 0.856 and a relative viability (Calu-6; first compound 0.08 µM) of 0.822. For the same molecule, the relative viability (Calu-6; first compound 0.253 µM) was 0.719, the relative viability (Calu-6; first compound 0.8 µM) was 0.7 and the relative viability (Calu-6; first compound 2.53 µM) was 0.758.

Molecule `C=C1C(=O)O[C@@H](CCCCCCCC)[C@@H]1C(=O)O` [C-75] + C[C@@H](Oc1cc(-c2cnn(C3CCNCC3)c2)cnc1N)c1c(Cl)ccc(F)c1Cl [Crizotinib] (partner 1 µM) has a relative viability (ChaGo-K-1; first compound 0.08 µM) of 1.03, a relative viability (ChaGo-K-1; first compound 0.253 µM) of 0.983 and a relative viability (ChaGo-K-1; first compound 0.8 µM) of 1.12. For the same molecule, the relative viability (ChaGo-K-1; first compound 2.53 µM) was 0.818, the relative viability (ChaGo-K-1; first compound 8 µM) was 1.08 and the relative viability (NCI-H1299; first compound 0.08 µM) was 0.939. For the same molecule, the relative viability (NCI-H1299; first compound 0.253 µM) was 0.932, the relative viability (NCI-H1299; first compound 0.8 µM) was 0.967 and the relative viability (NCI-H1299; first compound 2.53 µM) was 0.853. For the same molecule, the relative viability (NCI-H1299; first compound 8 µM) was 0.927, the relative viability (A549; first compound 0.08 µM) was 0.763 and the relative viability (A549; first compound 0.253 µM) was 0.715. For the same molecule, the relative viability (A549; first compound 0.8 µM) was 0.651, the relative viability (A549; first compound 2.53 µM) was 0.81 and the relative viability (A549; first compound 8 µM) was 0.593. The relative viability (EBC-1; first compound 0.08 µM) was 0.179, the relative viability (EBC-1; first compound 0.253 µM) was 0.184 and the relative viability (EBC-1; first compound 0.8 µM) was 0.225. For the same molecule, the relative viability (EBC-1; first compound 2.53 µM) was 0.179, the relative viability (EBC-1; first compound 8 µM) was 0.211 and the relative viability (IA-LM; first compound 0.08 µM) was 0.956. The relative viability (IA-LM; first compound 0.253 µM) was 1.09, the relative viability (IA-LM; first compound 8 µM) was 0.504 and the relative viability (SK-MES-1; first compound 0.08 µM) was 1.04. The relative viability (SK-MES-1; first compound 0.253 µM) was 0.997, the relative viability (SK-MES-1; first compound 0.8 µM) was 0.953 and the relative viability (SK-MES-1; first compound 8 µM) was 0.941. For the same molecule, the relative viability (NCI-H1703; first compound 0.08 µM) was 0.688, the relative viability (NCI-H1703; first compound 0.8 µM) was 0.495 and the relative viability (NCI-H1703; first compound 2.53 µM) was 0.683. For the same molecule, the relative viability (NCI-H1703; first compound 8 µM) was 0.587, the relative viability (NCI-H1651; first compound 0.08 µM) was 0.793 and the relative viability (NCI-H1651; first compound 0.253 µM) was 0.882. The relative viability (NCI-H1651; first compound 0.8 µM) was 0.852, the relative viability (NCI-H1651; first compound 2.53 µM) was 0.731 and the relative viability (NCI-H1651; first compound 8 µM) was 0.889. It also gave a relative viability (Calu-6; first compound 0.08 µM) of 0.816, a relative viability (Calu-6; first compound 0.253 µM) of 0.824 and a relative viability (Calu-6; first compound 0.8 µM) of 0.711. For the same molecule, the relative viability (Calu-6; first compound 2.53 µM) was 0.623 and the relative viability (Calu-6; first compound 8 µM) was 0.761.

`CC1(C)CCC(c2ccc(Cl)cc2)=C(CN2CCN(c3ccc(C(=O)NS(=O)(=O)c4ccc(N[C@H](CCN5CCOCC5)CSc5ccccc5)c(S(=O)(=O)C(F)(F)F)c4)cc3)CC2)C1` [Navitoclax] + CS(=O)(=O)N1CCN(Cc2cc3nc(-c4cccc5[nH]ncc45)nc(N4CCOCC4)c3s2)CC1 [Pictilisib] (partner 1 µM) showed a relative viability (ChaGo-K-1; first compound 0.005 µM) of 0.645, a relative viability (ChaGo-K-1; first compound 0.01581 µM) of 0.799 and a relative viability (ChaGo-K-1; first compound 0.05 µM) of 0.648. For the same molecule, the relative viability (ChaGo-K-1; first compound 0.1581 µM) was 0.641, the relative viability (ChaGo-K-1; first compound 0.5 µM) was 0.667 and the relative viability (NCI-H1299; first compound 0.005 µM) was 0.717. It also gave a relative viability (NCI-H1299; first compound 0.01581 µM) of 0.943, a relative viability (NCI-H1299; first compound 0.05 µM) of 0.874 and a relative viability (NCI-H1299; first compound 0.1581 µM) of 0.822. It also gave a relative viability (NCI-H1299; first compound 0.5 µM) of 0.819, a relative viability (A549; first compound 0.005 µM) of 0.418 and a relative viability (A549; first compound 0.01581 µM) of 0.425. It also gave a relative viability (A549; first compound 0.05 µM) of 0.685, a relative viability (A549; first compound 0.1581 µM) of 0.51 and a relative viability (A549; first compound 0.5 µM) of 0.504. For the same molecule, the relative viability (EBC-1; first compound 0.005 µM) was 0.411, the relative viability (EBC-1; first compound 0.01581 µM) was 0.378 and the relative viability (EBC-1; first compound 0.05 µM) was 0.448. For the same molecule, the relative viability (EBC-1; first compound 0.1581 µM) was 0.575, the relative viability (EBC-1; first compound 0.5 µM) was 0.138 and the relative viability (IA-LM; first compound 0.005 µM) was 0.466. For the same molecule, the relative viability (IA-LM; first compound 0.01581 µM) was 0.321, the relative viability (IA-LM; first compound 0.05 µM) was 0.404 and the relative viability (IA-LM; first compound 0.1581 µM) was 0.457. The relative viability (IA-LM; first compound 0.5 µM) was 0.292, the relative viability (SK-MES-1; first compound 0.005 µM) was 0.458 and the relative viability (SK-MES-1; first compound 0.01581 µM) was 0.48. For the same molecule, the relative viability (SK-MES-1; first compound 0.05 µM) was 0.355, the relative viability (SK-MES-1; first compound 0.1581 µM) was 0.321 and the relative viability (SK-MES-1; first compound 0.5 µM) was 0.334. The relative viability (NCI-H1703; first compound 0.005 µM) was 0.244, the relative viability (NCI-H1703; first compound 0.01581 µM) was 0.28 and the relative viability (NCI-H1703; first compound 0.05 µM) was 0.263. The relative viability (NCI-H1703; first compound 0.1581 µM) was 0.239, the relative viability (NCI-H1703; first compound 0.5 µM) was 0.245 and the relative viability (NCI-H1651; first compound 0.005 µM) was 0.592. The relative viability (NCI-H1651; first compound 0.01581 µM) was 0.687, the relative viability (NCI-H1651; first compound 0.1581 µM) was 0.561 and the relative viability (NCI-H1651; first compound 0.5 µM) was 0.559. It also gave a relative viability (Calu-6; first compound 0.005 µM) of 0.891, a relative viability (Calu-6; first compound 0.01581 µM) of 1.03 and a relative viability (Calu-6; first compound 0.05 µM) of 1.01. It also gave a relative viability (Calu-6; first compound 0.1581 µM) of 0.775 and a relative viability (Calu-6; first compound 0.5 µM) of 0.752.
